Test [1] concerns the target T1, HIV-1 integrase (wild-type IN) (Human immunodeficiency virus type 1 group M subtype B, UniProt P12497). In words: HIV-1 integrase strand transfer assay (32P-labeled 21-mer, gel). The test is classed as biochemical. The gist of the method:
(§1)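 Wild-type IN at 200 nM preincubated with inhibitor 30 min at 30 °C in MnCl2 (7.5 mM), pH 7.2 MOPS buffer with 10% DMSO, then 20 nM 5′-32P-labeled 21-mer duplex added for 1 h. 19-mer and strand-transfer products resolved on denaturing 20% gels by phosphorimaging; IC50 from log concentration versus % inhibition.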

The target of test [2] is T1, HIV-1 integrase (wild-type IN). In words: HIV-1 integrase 3′-processing assay (32P-labeled 21-mer, gel). Type of test: biochemical. The gist of the method:
as §1

The mark [3] stands for this setting: unit inferred, read-out: IN inhibition activity Strand transfer.
Where [4] appears, read: unit inferred, read-out: IN inhibition activity 3′-processing.
Setting [5] is: unit inferred, read-out: HIV-1 IN Inhibitory Activities Strand transfer.
Setting [6] is: unit inferred, read-out: HIV-1 IN Inhibitory Activities 3′-processing.
Setting [7] is: wild-type IN 200 nM, 7.5 mM MnCl2, read-out: Inhibition of IN Catalytic Activities IC50 (μM) Strand Transfer.
[8] abbreviates: wild-type IN 200 nM, 7.5 mM MnCl2, read-out: Inhibition of IN Catalytic Activities IC50 (μM) 3′-processing.

Bounds are passed on as bounds.

For `O=C(CSc1nnc(-c2ccc(Cl)cc2)n1-c1ccccc1)N/N=C/c1cccc(Oc2ccccc2)c1` [LX7], the IC50 in test [1] (setting [3]) and in test [2] (setting [4]) was above 100 µM each time.
Take `COc1ccc(O)c(/C=N/NC(=O)CSc2nnc(-c3ccncc3)n2-c2ccccc2)c1` [MC41]: the IC50 in test [1] (setting [3]) and in test [2] (setting [4]) was above 100 µM throughout.
Turning to `COc1ccc(C2C(C(=O)c3ccco3)=C(O)C(=O)N2CCN2CCOCC2)c(OC)c1` (centres unmarked) [MMC8], the figures for the IC50 in test [1] (setting [5]) and in test [2] (setting [6]) were 395 µM and above 1000 µM, respectively.
As for `CCOc1ccc2c(c1)C(=C1SC(C(=O)OC)=C(C(=O)OC)S1)C(=S)C(C)(C)N2C(=O)c1ccccc1F` [OT2], the IC50 in test [1] (setting [7]) was 95 ± 9 µM; in test [2] (setting [8]) it was above 100 µM.
For `COc1cc(/C=C2/SC(=S)N(CC(=O)O)C2=O)ccc1OCc1ccccc1` [OT3], the results for the IC50 in test [1] (setting [7]) and in test [2] (setting [8]) were 92 ± 7 µM and above 100 µM, respectively.
The corresponding values for `COc1cc(/C=C2/SC(=S)N(CC(=O)O)C2=O)ccc1OCc1ccccc1Cl` [OT4] are 22 ± 4 µM and 48 ± 7 µM.
Take `COc1ccc(/C=C2/SC(=S)N(CC(=O)O)C2=O)cc1OCc1ccccc1` [OT5]: the values for the IC50 in test [1] (setting [7]) and in test [2] (setting [8]) were 54 ± 17 µM and above 100 µM, respectively.
In the case of `COc1ccc(/C=C2/SC(=S)N(CC(=O)O)C2=O)cc1CCc1ccc(Cl)cc1Cl` [OT6], the IC50 in test [1] (setting [7]) is 13 ± 7 µM; in test [2] (setting [8]), 17 ± 4 µM.
The corresponding values for `O=C(N/N=C/c1ccc(-c2ccc(Cl)c(Cl)c2)o1)c1ccccc1O` [OT8] are 14 ± 4 µM and 31 ± 16 µM.
The corresponding values for `COc1cc(/C=C2/SC(=S)N(CC(=O)O)C2=O)ccc1OC(=O)c1ccc(F)cc1` [OT9] are 97 ± 5 µM and above 100 µM.
As for `COc1ccc(/C=N/NC(=O)CSc2nnc(-c3ccccc3)n2-c2ccccc2)c(C(=O)O)c1OC` [OT10], the IC50 in test [1] (setting [3]) and in test [2] (setting [4]) was above 100 µM each time.
`COc1cc(/C=C2/SC(=S)N(CCC(=O)O)C2=O)ccc1OC(=O)c1ccccc1` [OT17]: the IC50 in test [1] (setting [7]) amounted to 27 ± 11 µM; in test [2] (setting [8]), 42 ± 20 µM.
The corresponding values for `Cc1ccc(S(=O)(=O)N(CC(=O)Nc2ccccc2C(=O)O)c2cccc(Cl)c2)cc1` [OT24] are 71 ± 23 µM and 98 ± 5 µM.
For `CCOc1ccc(N(CC(=O)Nc2ccccc2C(=O)O)S(=O)(=O)c2ccc(Cl)cc2)cc1` [OT27], the IC50 in test [1] (setting [7]) came to 47 ± 22 µM; in test [2] (setting [8]), 69 ± 15 µM.
The corresponding values for `CCCc1cc2c(-c3ccccc3)cc(=O)oc2cc1OCc1ccc(C(=O)O)o1` [OT32] are 57 ± 22 µM and 72 ± 8 µM.
The corresponding values for `N#Cc1c(-c2ccc(F)cc2)cc(C2CC2)nc1SCCN1C(=O)c2ccccc2C1=O` [OT33] are 95 ± 11 µM and above 100 µM.
The corresponding values for `COCCN1C(=O)/C(=C\c2ccc(OCc3ccc(C(=O)O)cc3)c(OC)c2)SC1=S` [OT35] are 38 ± 16 µM and 41 ± 11 µM.
With `COc1ccc(/C=C2/SC(=S)N(CC(=O)O)C2=O)cc1OCc1ccccc1F` [OT37], the IC50 in test [1] (setting [7]) is 79 ± 8 µM; in test [2] (setting [8]) it was above 100 µM.
As to `O=C(CSc1nc2scc(-c3ccco3)c2c(=O)n1-c1ccccc1)NCc1ccco1` [OT51], the IC50 in test [1] (setting [7]) was determined as 14 ± 4 µM; in test [2] (setting [8]), 36 ± 29 µM.
Consider `O=C(Nc1cc(C(=O)Nc2ccccc2C(=O)O)cc(C(=O)Nc2ccccc2C(=O)O)c1)c1ccccc1` [ROM1], for which the IC50 in test [1] (setting [5]) turned out to be 20 µM; in test [2] (setting [6]) it was 78 µM.
On to `CCn1cc(C(=O)O)c(=O)c2cc(F)c(NNC(=O)C3CCCCC3)cc21` [ROM3A1], for which the IC50 in test [1] (setting [7]) and in test [2] (setting [8]) was above 100 µM in each case.
On to `CCn1cc(C(=O)NN)c(=O)c2cc(F)c(N3CCCCCC3)cc21` [ROM3A2], for which the IC50 in test [1] (setting [7]) came out at 98 µM; in test [2] (setting [8]) it was 94 µM.
In the case of `CCn1cc(C(=O)O)c(=O)c2cc(F)c(N3CCN(C(=O)c4cccc(C)c4)CC3)cc21` [ROM3A3], the IC50 in test [1] (setting [7]) and in test [2] (setting [8]) was above 100 µM throughout.
As to `CCn1cc(C(=O)O)c(=O)c2cnc(N3CCN(C(=S)NC(=O)c4ccc(F)c(F)c4)CC3)nc21` [ROM3A4], the IC50 in test [1] (setting [7]) amounted to 59 µM; in test [2] (setting [8]), 64 µM.
Consider `NC(=S)N1CCN(c2c(F)c(N)c3c(=O)c(C(=O)O)cn(C4CC4)c3c2F)CC1` [ROM3A5], for which the IC50 in test [1] (setting [7]) and in test [2] (setting [8]) was above 100 µM throughout.
For `CCn1cc(C(=O)O)c(=O)c2cc(F)c(N3CCN(C(=S)S)CC3)cc21` [ROM3A6], the IC50 in test [1] (setting [7]) and in test [2] (setting [8]) was above 100 µM in each case.
`CCn1cc(C(=O)O)c(=O)c2c(N)c(F)c(N3CCNCC3)c(F)c21` [ROM3A7]: the figures for the IC50 in test [1] (setting [7]) and in test [2] (setting [8]) were 95 µM and above 100 µM, respectively.
The corresponding values for `CCn1cc(C(=O)O)c(=O)c2cc(F)c(N3CCN(C(=S)NC(=O)C45CC6CC(CC(C6)C4)C5)CC3)cc21` [ROM3A8] are 74 µM and 78 µM.
For `O=C(NC(=S)N1CCN(c2cc3c(cc2F)c(=O)c(C(=O)O)cn3C2CC2)CC1)c1ccc(Cl)cc1` [ROM3A9], the results for the IC50 in test [1] (setting [7]) and in test [2] (setting [8]) were 53 µM and 80 µM, respectively.
The corresponding values for `O=C(NC1CC1)c1c[nH]c2ccc(S(=O)(=O)Nc3cccc(C(F)(F)F)c3)cc2c1=O` [ROM3A10] are 92 µM and 93 µM.
On to `O=C(NCc1cccs1)c1c[nH]c2ccc(S(=O)(=O)Nc3ccc4c(c3)OCCO4)cc2c1=O` [ROM3A11], for which the IC50 in test [1] (setting [7]) stood at 90 µM; in test [2] (setting [8]), 91 µM.
The corresponding values for `O=C(O)c1c[nH]c2c(F)c(F)c(F)c(NCc3ccccc3)c2c1=O` [ROM3] are 12 µM and above 12 µM.
The corresponding values for `Oc1cccc2ccc(/C=N/N=C/c3ccc4cccc(O)c4n3)nc12` [RT3] are 69 µM and 45 µM.
`O=C(O)CCN1C(=O)/C(=C\c2ccc(-c3cccc(Cl)c3)o2)SC1=S` [RT23]: the IC50 is 21 µM in test [1] (setting [7]) and above 100 µM in test [2] (setting [8]).
The corresponding values for `Oc1cccc2ccc(/C=C/c3ccc(-c4cccc(Cl)c4)o3)nc12` [RT29] are 70 µM and 30 µM.
The corresponding values for `Cc1ccc2ccc(C(Nc3ccccn3)c3ccc(F)cc3)c(O)c2n1` (centres unmarked) [RT30] are above 100 µM and above 100 µM.
The corresponding values for `Cc1cc([N+](=O)[O-])ccc1-c1ccc(/C=C/c2ccc3cccc(O)c3n2)o1` [RT31] are above 100 µM and 57 µM.
For `CCOc1cc(/C=C2/C(=N)N3N=C(C(C)(F)F)SC3=NC2=O)ccc1OCc1ccc(F)cc1` [RT35], the IC50 in test [1] (setting [7]) stood at 19 µM; in test [2] (setting [8]), 90 µM.
The corresponding values for `CC1=NN2C(=N)/C(=C/c3ccc(-c4ccccc4Cl)o3)C(=O)N=C2S1` [RT42] are above 100 µM and above 100 µM.
In the case of `O=C(N/N=C/c1ccc(-c2ccc(O)c(C(=O)O)c2)o1)c1cccnc1` [SA1], the IC50 in test [1] (setting [3]) amounted to 9 ± 5 µM; in test [1] (setting [7]), 9 µM; in test [2] (setting [4]) it was 59 ± 1 µM; in test [2] (setting [8]) it was 59 µM.
Regarding `CCn1cc(C(=O)O)c(=O)c2cc(F)c(N3CCN(S(=O)(=O)c4ccc(NC(C)=O)cc4)CC3)cc21` [SR9], the IC50 in test [1] (setting [7]) and in test [2] (setting [8]) was above 100 µM throughout.
As to `O=c1cc(-c2ccccc2)c2ccc(O)c(O)c2o1` [SR44], the IC50 was found to be 16 µM in test [1] (setting [7]) and 32 µM in test [2] (setting [8]).
Consider `CCn1c(=O)c(C(=O)Nc2cc(Cl)ccc2OC)c(O)c2ccccc21` [XR5], for which the IC50 in test [1] (setting [7]) worked out at 19 µM; in test [2] (setting [8]) it was 74 µM.
As to `CCCCCn1c(=O)c(C(=O)Nc2cc([N+](=O)[O-])ccc2O)c(O)c2ccccc21` [XR6], the IC50 in test [1] (setting [7]) and in test [2] (setting [8]) was 9 µM each time.
As to `C=CCn1c(=O)c(C(=O)Nc2ccccc2S(N)(=O)=O)c(O)c2ccccc21` [XR7], the figures for the IC50 in test [1] (setting [7]) and in test [2] (setting [8]) were 45 µM and 83 µM, respectively.
Take `Cn1c(=O)c(C(=O)Nc2ccccc2S(N)(=O)=O)c(O)c2ccccc21` [XR8]: the values for the IC50 in test [1] (setting [7]) and in test [2] (setting [8]) were 39 µM and 50 µM, respectively.
The corresponding values for `CCn1c(=O)c(C(=O)Nc2ccccc2O)c(O)c2ccccc21` [XR10] are 32 µM and 72 µM.
As to `Cn1c(=O)c(C(=O)Nc2ccccc2C(F)(F)F)c(O)c2ccccc21` [XR12], the values for the IC50 in test [1] (setting [7]) and in test [2] (setting [8]) were 28 µM and 81 µM, respectively.
As for `CCCCCn1c(=O)c(C(=O)Nc2ccccc2S(N)(=O)=O)c(O)c2ccccc21` [XR13], the IC50 in test [1] (setting [7]) amounted to 13 µM; in test [2] (setting [8]), 11 µM.
`CCCCn1c(=O)c(C(=O)Nc2ccccc2S(N)(=O)=O)c(O)c2ccccc21` [XR14]: the IC50 amounted to 17 µM in test [1] (setting [7]) and 15 µM in test [2] (setting [8]).
Turning to `Cc1cc2nc(-c3cc(NC(=O)c4ccc(F)cc4)ccc3O)oc2cc1C` [XR16], the IC50 in test [1] (setting [5]) and in test [2] (setting [6]) was below 100 µM throughout.
Regarding `COc1ccc(C(=O)Nc2ccc(O)c(-c3nc4ccccc4o3)c2)cc1[N+](=O)[O-]` [XR17], the results for the IC50 in test [1] (setting [5]) and in test [2] (setting [6]) were 7 µM and 6 µM, respectively.
The corresponding values for `COc1cc(C(=O)Nc2ccc(O)c(-c3nc4ccccc4o3)c2)cc(OC)c1OC` [XR18] are below 100 µM and below 100 µM.
The corresponding values for `O=C(Nc1ccc(O)c(-c2nc3ccccc3o2)c1)c1ccccc1F` [XR19] are below 100 µM and below 100 µM.
As for `O=C(Nc1ccc(O)c(-c2nc3ccccc3o2)c1)c1cccc2ccccc12` [XR21], the IC50 was found to be 6 µM in test [1] (setting [5]) and 14 µM in test [2] (setting [6]).
The corresponding values for `COc1ccccc1C(=O)Nc1ccc(O)c(-c2nc3cc(C)ccc3o2)c1` [XR22] are below 100 µM and below 100 µM.
With `O=C(NNC(=O)c1c(O)c2ccccc2[nH]c1=O)c1ccccc1Cl` [XR44], the figures for the IC50 in test [1] (setting [7]) and in test [2] (setting [8]) were 26 µM and 28 µM, respectively.

These data come from US8183236B2, “Compounds with HIV-1 integrase inhibitory activity and use thereof as anti-HIV/AIDS therapeutics” (University of Southern California, priority 2007, dated 2012).
